Test results as given in ChEMBL document CHEMBL3885881, “DrugMatrix”.

Species: Rattus norvegicus
Test: DrugMatrix - Regimen: Daily Repeat
Assay type: toxicity, organism-based, Sprague-Dawley
Design: regimen Daily Repeat, gender Male, age 6-8 weeks
Conditions: in vivo, iv, vehicle 100 % SALINE; for ABSOLUTE BASOPHIL / ABSOLUTE EOSINOPHIL / ABSOLUTE LYMPHOCYTE / ABSOLUTE MONOCYTE / ABSOLUTE SEGMENTED NEUTROPHIL / BASOPHIL / EOSINOPHIL / ERYTHROCYTE COUNT / HEMATOCRIT / HEMOGLOBIN / LEUKOCYTE COUNT / LYMPHOCYTE / MEAN CORPUSCULAR HEMOGLOBIN / MEAN CORPUSCULAR HEMOGLOBIN CONCENTRATION / MEAN CORPUSCULAR VOLUME / MONOCYTE / NEUTROPHIL / NUCLEATED RED BLOOD CELLS / PLATELET COUNT: tissue Blood; for ALANINE AMINOTRANSFERASE / ALBUMIN / ALKALINE PHOSPHATASE / ASPARTATE AMINOTRANSFERASE / BLOOD UREA NITROGEN / CARBON DIOXIDE / CHLORIDE / CHOLESTEROL / CREATINE PHOSPHOKINASE / CREATININE / GLUCOSE / LACTATE DEHYDROGENASE / LIPASE / PHOSPHORUS / POTASSIUM / SODIUM / TOTAL BILIRUBIN / TOTAL PROTEIN / URIC ACID: tissue Plasma
[1] = 7 mg/kg, 120 h, dose level Low, time 5 day
[2] = 41 mg/kg, 72 h, dose level High, time 3 day
[3] = 41 mg/kg, 120 h, dose level High, time 5 day

CC(=O)N[C@@H]1[C@H](Oc2c3cc4cc2Oc2ccc(cc2Cl)[C@@H](O[C@@H]2O[C@@H](CO)[C@@H](O)[C@H](O)[C@@H]2NC(C)=O)[C@@H]2NC(=O)[C@H](NC(=O)[C@@H]4NC(=O)[C@H]4NC(=O)[C@@H](Cc5ccc(c(Cl)c5)O3)NC(=O)[C@H](N)c3ccc(O)c(c3)Oc3cc(O)cc4c3)c3ccc(O)c(c3)-c3c(O[C@H]4O[C@H](CO)[C@@H](O)[C@@H](O)[C@@H]4O)cc(O)cc3[C@@H](C(=O)O)NC2=O)O[C@@H](CO)[C@@H](O)[C@@H]1O
ABSOLUTE BASOPHIL [1]: 0 CELLS/uL
ABSOLUTE EOSINOPHIL [1]: 166 CELLS/uL
ABSOLUTE LYMPHOCYTE [1]: 15568 CELLS/uL
ABSOLUTE MONOCYTE [1]: 230.67 CELLS/uL
ABSOLUTE SEGMENTED NEUTROPHIL [1]: 1568.67 CELLS/uL
BASOPHIL [1]: 0%
EOSINOPHIL [1]: 1%
ERYTHROCYTE COUNT [1]: 5.77 x10E6/uL
HEMATOCRIT [1]: 36.27%
HEMOGLOBIN [1]: 13.63 G/DL
LEUKOCYTE COUNT [1]: 17.53 x10E3/uL
LYMPHOCYTE [1]: 88.67%
MEAN CORPUSCULAR HEMOGLOBIN [1]: 23.67 pg
MEAN CORPUSCULAR HEMOGLOBIN CONCENTRATION [1]: 37.57 G/DL
MEAN CORPUSCULAR VOLUME [1]: 62.97 fL
MONOCYTE [1]: 1.33%
NEUTROPHIL [1]: 9%
NUCLEATED RED BLOOD CELLS [1]: 0 /100WBC
PLATELET COUNT [1]: 1190.67 x10E3/uL
ALANINE AMINOTRANSFERASE [1]: 40.67 u/L
ALBUMIN [1]: 4.23 G/DL
ALKALINE PHOSPHATASE [1]: 395 u/L
ASPARTATE AMINOTRANSFERASE [1]: 84.33 u/L
BLOOD UREA NITROGEN [1]: 19.33 mg/dL
CARBON DIOXIDE [1]: 24 mmol/L
CHLORIDE [1]: 106.67 MEQ/L
CHOLESTEROL [1]: 59.33 mg/dL
CREATINE PHOSPHOKINASE [1]: 389.67 u/L
CREATININE [1]: 0.18 mg/dL
GLUCOSE [1]: 149 mg/dL
LACTATE DEHYDROGENASE [1]: 466.67 u/L
LIPASE [1]: 8.33 u/L
PHOSPHORUS [1]: 11.47 mg/dL
POTASSIUM [1]: 5.99 MEQ/L
SODIUM [1]: 144.47 MEQ/L
TOTAL BILIRUBIN [1]: 0.2 mg/dL
TOTAL PROTEIN [1]: 6.03 G/DL
URIC ACID [1]: 1.17 mg/dL
ABSOLUTE BASOPHIL [2]: 0 CELLS/uL
ABSOLUTE EOSINOPHIL [2]: 126.67 CELLS/uL
ABSOLUTE LYMPHOCYTE [2]: 16661.33 CELLS/uL
ABSOLUTE MONOCYTE [2]: 515.67 CELLS/uL
ABSOLUTE SEGMENTED NEUTROPHIL [2]: 1929.67 CELLS/uL
BASOPHIL [2]: 0%
EOSINOPHIL [2]: 0.67%
ERYTHROCYTE COUNT [2]: 5.53 x10E6/uL
HEMATOCRIT [2]: 35.03%
HEMOGLOBIN [2]: 13.17 G/DL
LEUKOCYTE COUNT [2]: 19.23 x10E3/uL
LYMPHOCYTE [2]: 86.67%
MEAN CORPUSCULAR HEMOGLOBIN [2]: 23.83 pg
MEAN CORPUSCULAR HEMOGLOBIN CONCENTRATION [2]: 37.6 G/DL
MEAN CORPUSCULAR VOLUME [2]: 63.4 fL
MONOCYTE [2]: 2.67%
NEUTROPHIL [2]: 10%
NUCLEATED RED BLOOD CELLS [2]: 0 /100WBC
PLATELET COUNT [2]: 1404 x10E3/uL
ALANINE AMINOTRANSFERASE [2]: 41.67 u/L
ALBUMIN [2]: 4.13 G/DL
ALKALINE PHOSPHATASE [2]: 271.33 u/L
ASPARTATE AMINOTRANSFERASE [2]: 67.33 u/L
BLOOD UREA NITROGEN [2]: 18.33 mg/dL
CARBON DIOXIDE [2]: 27 mmol/L
CHLORIDE [2]: 102 MEQ/L
CHOLESTEROL [2]: 61.67 mg/dL
CREATINE PHOSPHOKINASE [2]: 181 u/L
CREATININE [2]: 0.21 mg/dL
GLUCOSE [2]: 153.67 mg/dL
LACTATE DEHYDROGENASE [2]: 125.67 u/L
LIPASE [2]: 8.33 u/L
PHOSPHORUS [2]: 11.33 mg/dL
POTASSIUM [2]: 6.69 MEQ/L
SODIUM [2]: 143.47 MEQ/L
TOTAL BILIRUBIN [2]: 0.2 mg/dL
TOTAL PROTEIN [2]: 5.87 G/DL
URIC ACID [2]: 1.37 mg/dL
ABSOLUTE BASOPHIL [3]: 0 CELLS/uL
ABSOLUTE EOSINOPHIL [3]: 0 CELLS/uL
ABSOLUTE LYMPHOCYTE [3]: 12482 CELLS/uL
ABSOLUTE MONOCYTE [3]: 440.67 CELLS/uL
ABSOLUTE SEGMENTED NEUTROPHIL [3]: 1610.67 CELLS/uL
BASOPHIL [3]: 0%
EOSINOPHIL [3]: 0%
ERYTHROCYTE COUNT [3]: 5.88 x10E6/uL
HEMATOCRIT [3]: 36.7%
HEMOGLOBIN [3]: 13.8 G/DL
LEUKOCYTE COUNT [3]: 14.53 x10E3/uL
LYMPHOCYTE [3]: 86%
MEAN CORPUSCULAR HEMOGLOBIN [3]: 23.47 pg
MEAN CORPUSCULAR HEMOGLOBIN CONCENTRATION [3]: 37.6 G/DL
MEAN CORPUSCULAR VOLUME [3]: 62.47 fL
MONOCYTE [3]: 3%
NEUTROPHIL [3]: 11%
NUCLEATED RED BLOOD CELLS [3]: 0 /100WBC
PLATELET COUNT [3]: 1300.33 x10E3/uL
ALANINE AMINOTRANSFERASE [3]: 57.67 u/L
ALBUMIN [3]: 4.3 G/DL
ALKALINE PHOSPHATASE [3]: 395 u/L
ASPARTATE AMINOTRANSFERASE [3]: 79.33 u/L
BLOOD UREA NITROGEN [3]: 18.67 mg/dL
CARBON DIOXIDE [3]: 29.67 mmol/L
CHLORIDE [3]: 102.33 MEQ/L
CHOLESTEROL [3]: 69.67 mg/dL
CREATINE PHOSPHOKINASE [3]: 275 u/L
CREATININE [3]: 0.19 mg/dL
GLUCOSE [3]: 177 mg/dL
LACTATE DEHYDROGENASE [3]: 229 u/L
LIPASE [3]: 9 u/L
PHOSPHORUS [3]: 13.2 mg/dL
POTASSIUM [3]: 6.79 MEQ/L
SODIUM [3]: 148.17 MEQ/L
TOTAL BILIRUBIN [3]: 0.17 mg/dL
TOTAL PROTEIN [3]: 6.3 G/DL
URIC ACID [3]: 1.83 mg/dL
